Experimental data as given in ChEMBL document CHEMBL4616632, “Discovery of Cyclic Boronic Acid QPX7728, an Ultrabroad-Spectrum Inhibitor of Serine and Metallo-β-lactamases” (J Med Chem, 2020).

Columns and labels:
[1] = Inhibition of recombinant Escherichia coli SHV-12 using nitrocefin as substrate preincubated for 10 mins followed by substrate addition measured every 10 secs for 10 mins by spectrophotometrically analysis
Klebsiella pneumoniae [2] = test: Inhibition of Klebsiella pneumoniae KP1009 CTX-M-15 assessed as minimum concentration of compound required to reduce the MIC of aztreonam to 4 ug/ml
Escherichia coli [3] = test: Inhibition of Escherichia coli KP308 SHV-5 assessed as minimum concentration of compound required to reduce the MIC of aztreonam to 4 ug/ml
Escherichia coli [4] = test: Inhibition of Escherichia coli EC302 TEM-10 assessed as minimum concentration of compound needed to reduce the MIC of aztreonam to 4 ug/ml
Enterobacter cloacae = test: Inhibition of Enterobacter cloacae ECL1002 AmpC assessed as minimum concentration of compound needed to reduce the MIC of aztreonam to 4 ug/ml
Klebsiella pneumoniae [5] = test: Inhibition of Klebsiella pneumoniae KP1160 IMP-26 assessed as minimum concentration of compound needed to reduce the MIC of meropenem to 1 ug/ml
Escherichia coli [6] = test: Inhibition of Escherichia coli ECM6619 TEM-10 assessed as minimum concentration of compound needed to reduce the MIC of aztreonam to 4 ug/ml
Chymotrypsin = Chymotrypsin (Homo sapiens, UniProt Q99895+P17538+P40313+Q6GPI1); test: Inhibition of mammalian chymotrypsin (unknown origin) using Suc-AAPF-AMC as substrate preincubated for 10 mins followed by substrate addition measured after 30 mins; format: protein assay
Trypsin = Trypsin (Homo sapiens, UniProt P07477+P07478+P35030); test: Inhibition of mammalian trypsin (unknown origin) using N-Bz-R-AMC as substrate preincubated for 10 mins followed by substrate addition measured after 30 mins; format: protein assay
Dipeptidyl peptidase 9 = Dipeptidyl peptidase 9 (Homo sapiens, UniProt Q86TI2); test: Inhibition of mammalian DPP9 (unknown origin) using Lys-Pro-AMC as substrate preincubated for 10 mins followed by substrate addition measured after 30 mins
[7] = AUC in rat at 100 mg/kg, iv administered as infusion for 0.5 hrs by HPLC/MS analysis; format: ADME, organism-based; details: in vivo
[8] = AUC in rat at 300 mg/kg, iv administered as infusion for 0.5 hrs by HPLC/MS analysis; format: ADME, organism-based; details: in vivo
[9] = Clearance in rat at 100 mg/kg, po administered via gavage by HPLC/MS analysis; format: ADME, organism-based; details: in vivo
[10] = Clearance in rat at 300 mg/kg, po administered via gavage by HPLC/MS analysis; format: ADME, organism-based; details: in vivo
[11] = Clearance in rat at 1000 mg/kg, po administered via gavage by HPLC/MS analysis; format: ADME, organism-based; details: in vivo
[12] = Half life in rat at 10 mg/kg, iv administered as infusion for 0.5 hrs by HPLC/MS analysis; format: ADME, organism-based; details: in vivo
[13] = Half life in rat at 100 mg/kg, iv administered as infusion for 0.5 hrs by HPLC/MS analysis; format: ADME, organism-based; details: in vivo
[14] = Half life in rat at 100 mg/kg, po administered via gavage by HPLC/MS analysis; format: ADME, organism-based; details: in vivo
[15] = Oral bioavailability in rat at 300 mg/kg administered via gavage by HPLC/MS analysis; format: ADME, organism-based; details: in vivo
[16] = Oral bioavailability in rat at 1000 mg/kg administered via gavage by HPLC/MS analysis; format: ADME, organism-based; details: in vivo
[17] = Protein binding in rat plasma; format: ADME, cell-free; details: read-out: PPB (converted)
Klebsiella pneumoniae [18] = test: Potentiation of meropenem-induced bacteriostatic activity against carbapenem-resistant Klebsiella pneumoniae KP1244 harboring KPC-3, SHV-11, and SHV-12 infected in Swiss-Webster mouse model of neutropenic thigh infection assessed as log change in bacterial count in thigh at 5 mg/kg, ip administered at 2 hrs interval for 24 hrs starting from 2 hr post infection and measured post last dose (reference value: 0.62 log10CFU); format: functional
Klebsiella pneumoniae [19] = test: Potentiation of meropenem-induced bacteriostatic activity against carbapenem-resistant Klebsiella pneumoniae KP1244 harboring KPC-3, SHV-11, and SHV-12 infected in Swiss-Webster mouse model of neutropenic thigh infection assessed as log change in bacterial count in thigh at 10 mg/kg, ip administered at 2 hrs interval for 24 hrs starting from 2 hr post infection and measured post last dose (reference value: 0.62 log10CFU); format: functional
[20] = Protein binding in human plasma; format: ADME, cell-free; details: read-out: PPB (converted)
[21] = Toxicity in rat at 30 to 1000 mg/kg, po administered via gavage; format: organism-based; details: in vivo
Klebsiella pneumoniae [22] = test: Potentiation of meropenem-induced antibacterial activity in Klebsiella pneumoniae KP1244 by measuring meropenem MIC at 8 ug/ml by broth microdilution method (Rvb >64 ug/ml); format: functional
[23] = Toxicity in rat assessed as histological changes in tissue at 30 to 300 mg/kg, iv administered daily via infusion for 7 days; format: organism-based; details: in vivo, 168 h
[24] = Toxicity in rat assessed as clinical changes at 30 to 300 mg/kg, iv administered daily via infusion for 7 days; format: organism-based; details: in vivo, 168 h
Klebsiella pneumoniae [25] = test: Potentiation of cefepime-induced antibacterial activity against carbapenem-resistant Klebsiella pneumoniae assessed as cefepime MIC50 at 8 ug/ml by broth microdilution method (reference value: 32 ug/ml); format: functional
Enterobacteriaceae [26] = test: Inhibition of OXA-48 in carbapenem-resistant Enterobacteriaceae assessed as potentiation of cefepime-induced antibacterial activity by measuring cefepime MIC90 at 8 ug/ml by broth microdilution method (Rvb > 32 ug/ml)
Acinetobacter baumannii [27] = test: Potentiation of cefepime-induced antibacterial activity against carbapenem-resistant Acinetobacter baumannii assessed as cefepime MIC90 at 8 ug/ml by broth microdilution method (Rvb > 32 ug/ml); format: functional
Enterobacteriaceae [28] = test: Inhibition of NDM/VIM in carbapenem-resistant Enterobacteriaceae assessed as potentiation of ceftolozane-induced antibacterial activity by measuring ceftolozane MIC50 at 8 ug/ml by broth microdilution method (Rvb > 32 ug/ml)
Pseudomonas aeruginosa = test: Potentiation of ceftolozane-induced antibacterial activity against Pseudomonas aeruginosa assessed as ceftolozane MIC50 at 8 ug/ml by broth microdilution method (reference value: 0.5 ug/ml); format: functional
Enterobacterales = test: Potentiation of ceftolozane-induced antibacterial activity against Enterobacterales assessed as ceftolozane MIC90 at 8 ug/ml by broth microdilution method (Rvb > 32 ug/ml); format: functional
Enterobacteriaceae [29] = test: Inhibition of OXA-48 in carbapenem-resistant Enterobacteriaceae assessed as potentiation of ceftolozane-induced antibacterial activity by measuring ceftolozane MIC90 at 8 ug/ml by broth microdilution method (Rvb > 32 ug/ml)
Enterobacteriaceae [30] = test: Inhibition of NDM/VIM in carbapenem-resistant Enterobacteriaceae assessed as potentiation of ceftolozane-induced antibacterial activity by measuring ceftolozane MIC90 at 8 ug/ml by broth microdilution method (Rvb > 32 ug/ml)
Acinetobacter baumannii [31] = test: Potentiation of ceftolozane-induced antibacterial activity against carbapenem-resistant Acinetobacter baumannii assessed as ceftolozane MIC90 at 8 ug/ml by broth microdilution method (Rvb > 32 ug/ml); format: functional

Dipeptidyl peptidase 9, sequence (Q86TI2 whole entry, the tested form may be a part): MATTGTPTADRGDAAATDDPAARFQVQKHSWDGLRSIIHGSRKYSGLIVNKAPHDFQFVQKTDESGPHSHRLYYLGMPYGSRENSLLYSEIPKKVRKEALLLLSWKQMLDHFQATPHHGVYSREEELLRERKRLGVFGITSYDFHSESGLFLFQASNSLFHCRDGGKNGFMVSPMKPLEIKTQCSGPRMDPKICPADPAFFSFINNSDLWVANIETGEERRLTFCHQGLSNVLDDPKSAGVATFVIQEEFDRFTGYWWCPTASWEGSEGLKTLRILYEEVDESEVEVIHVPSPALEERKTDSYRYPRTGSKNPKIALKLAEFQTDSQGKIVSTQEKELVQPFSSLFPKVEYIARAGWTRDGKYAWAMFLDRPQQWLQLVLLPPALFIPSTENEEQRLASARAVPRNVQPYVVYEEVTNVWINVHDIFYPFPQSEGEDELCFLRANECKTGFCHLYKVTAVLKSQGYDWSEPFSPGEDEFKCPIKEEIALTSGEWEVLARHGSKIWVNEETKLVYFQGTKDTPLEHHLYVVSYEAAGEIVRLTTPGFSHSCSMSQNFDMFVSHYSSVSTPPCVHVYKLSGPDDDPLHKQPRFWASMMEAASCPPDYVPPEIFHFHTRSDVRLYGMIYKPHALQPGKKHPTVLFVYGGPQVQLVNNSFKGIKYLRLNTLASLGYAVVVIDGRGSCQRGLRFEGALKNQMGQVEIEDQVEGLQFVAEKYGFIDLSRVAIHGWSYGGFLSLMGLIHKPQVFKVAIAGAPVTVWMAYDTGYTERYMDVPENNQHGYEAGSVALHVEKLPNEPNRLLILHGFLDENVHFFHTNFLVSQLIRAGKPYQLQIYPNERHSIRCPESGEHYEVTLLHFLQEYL

**Q.** What does the source list for `O=C(O)c1c(F)ccc2c1OB(O)[C@@H]1C[C@H]21` [XERUBORBACTAM]?
**A.** Ki [1]: 0.00074 µM; MEC (Klebsiella pneumoniae [2]): 0.3 µg/mL; MEC (Escherichia coli [3]): 0.3 µg/mL; MEC (Escherichia coli [4]): 0.16 µg/mL; MEC (Enterobacter cloacae): 0.6 µg/mL; MEC (Klebsiella pneumoniae [5]): 2.5 µg/mL; MEC (Escherichia coli [6]): 0.16 µg/mL; IC50 (Chymotrypsin): > 1000 µM; IC50 (Trypsin): > 1000 µM; IC50 (Dipeptidyl peptidase 9): > 1000 µM; AUC at 0.5 h [7]: 221 µg·h/mL; AUC at 0.5 h [8]: 608 µg·h/mL; CL/F [9]: 18.5 mL/min/kg; CL/F [10]: 28.5 mL/min/kg; CL/F [11]: 34.2 mL/min/kg; half-life [12]: 1.25 h; half-life [13]: 1.46 h; half-life [14]: 3.23 h; bioavailability [15]: 28%; bioavailability [16]: 24.3%; fraction unbound [17]: 0.15; Activity (Klebsiella pneumoniae [18]): -0.88 log10CFU; Activity (Klebsiella pneumoniae [19]): -1.66 log10CFU; fraction unbound [20]: 0.04; Activity [21]: Non-Toxic; MIC (Klebsiella pneumoniae [22]): 0.25 µg/mL; Activity [23]: Toxic; Activity [24]: Toxic; MIC50 (Klebsiella pneumoniae [25]): ≤ 0.06 µg/mL; MIC90 (Enterobacteriaceae [26]): 0.5 µg/mL; MIC90 (Acinetobacter baumannii [27]): 32 µg/mL; MIC50 (Enterobacteriaceae [28]): 16 µg/mL; MIC50 (Pseudomonas aeruginosa): 0.5 µg/mL; MIC90 (Enterobacterales): 8 µg/mL; MIC90 (Enterobacteriaceae [29]): 0.5 µg/mL; MIC90 (Enterobacteriaceae [30]): > 32 µg/mL; MIC90 (Acinetobacter baumannii [31]): 32 µg/mL
